The text below walks through data of patent US20220144775A1, “HYDRAZIDE COMPOUND AND KINASE INHIBITOR” (NISSAN CHEMICAL CORPORATION, priority 2019, published 2022).

Structures are written as SMILES.

For the assay, the system named is YAP. As to the kind of experiment: YAP phosphorylation inhibitory action in SKOV3 (HTRF). The format is cell-based, human. The settings on record: 10 μM, 1 hr, non-treatment 100%. The protocol:
Human ovarian cancer cell line SKOV3 (manufactured by DS Pharma Biomedical Co., Ltd.) was precultured using a 15% FBS-containing McCoy's 5a medium (manufactured by Sigma-Aldrich) (single layer culture). The above-mentioned cells in the logarithmic growth phase were washed with PBS. A 0.25% (w/v) trypsin-1 mmol/L ethylenediaminetetraacetic acid (EDTA) solution (manufactured by FUJIFILM Wako Pure Chemical Corporation) was added and the adherent cells were incubated at 37° C. for 3 min and detached. The above-mentioned medium was added, and the cells were centrifuged and resuspended in the same medium.
According to the method of patent document 1 (WO 2014/017513), a composition of 10% FBS-containing DMEM medium (Phenol-red free, manufactured by FUJIFILM Wako Pure Chemical Corporation) containing 0.015% (w/v) deacylated gellan gum (KELCOGEL CG-LA, manufactured by SANSHO Co., Ltd.) was prepared using FCeM-series Preparation Kit (manufactured by FUJIFILM Wako Pure Chemical Corporation). Then, various cells prepared above were suspended in the above-mentioned medium composition (3D culture conditions) added with deacylated gellan gum or a medium without the addition (2D culture conditions), and seeded on a 50 μL/well (manufactured by Corning Incorporated, a 96 well flat bottom plate, #3585, 2D culture conditions) or 25 μL/well (manufactured by Corning Incorporated, 96 well low adhesion flat bottom plate, #3474) at 100000 cells/well. The plate was allowed to stand at 37° C. in a 5% CO2 incubator, and the compound of the present invention diluted with the medium at 2 or 6 times the final concentration, DMSO, or the medium alone was added to the plate 3 hr after the seeding at 50 μL/well (2D culture conditions) or 5 μL/well (3D culture conditions) to make the final concentration of each compound 10 μM. After culture at 37° C. in a 5% CO2 incubator for 1 hr, the supernatant was aspirated, supplemented Lysis buffer (1-fold concentration, manufactured by Cisbio, YAP-total kit or YAP phospho-S27 kit) (50 μL) was added under 2D culture conditions, and supplemented Lysys buffer (4-fold concentration) (10 μL) was added to the culture supernatant under 3D conditions, and the mixture was stirred by a plate shaker for 30 min. Thereafter, the plate was centrifuged, 16 μL of the supernatant was transferred to a 384-well white plate (Corning, #4512), and each antibody solution (pYAP d2 antibody or Total-YAP d2 antibody, and pYAP Cryptate antibody or Total-YAP Cryptate antibody) included in the kit was added at 4 μL/well in total, and the mixture was allowed to stand at room temperature overnight. As a blank control, pYAP Cryptate antibody or Total-YAP Cryptate antibody alone was added to cells free of stimulation with compound and the mixture was treated in the same manner. The next day, the wavelengths at 665 nm and 615′ nm were measured in the HTRF mode of EnVision (manufactured by PerkinElmer).
The obtained signal was calculated as follows. Ratio=signal (665 nm)/signal (615 nm)×10000, ΔR=Signal(Ratio)−Background fluorescence, and the relative phosphorylated YAP amount or total YAP amount for each compound when ΔR of the compound non-addition group (non-treatment) is 100% is shown in Tables 7 and 8 (2D culture), and Tables 9 and 10 (3D culture). From the results, it was shown that the compound of the present zo invention has a YAP phosphorylation inhibitory action under both 2D and 3D culture conditions.
(Time-resolved FRET reads energy transfer from a long-lived donor to a nearby acceptor.)

For `CC/C(=N\NC(=O)C(C)Nc1cccnc1)c1ccc(O)c(C)c1O` (centres unmarked) [A-004, (E)-N′-(1-(2,4-dihydroxy-3-methylphenyl)propylidene)-2-(pyridin-3-ylamino)propanehydrazide], for the setting “2D culture conditions”, the “phosphorylated YAP amount (%)” value is on record as 19% and the “total YAP amount (%)” value was 87%. Moreover, for the setting “3D culture conditions”, the “phosphorylated YAP amount (%)” value is recorded as 33% and the “total YAP amount (%)” value is recorded as 105%.

As for `CC/C(=N\NC(=O)C(C)Nc1cncc(F)c1)c1ccc(O)c(C)c1O` (centres unmarked) [A-007], under “2D culture conditions”, the “phosphorylated YAP amount (%)” value was found to be 16% and the “total YAP amount (%)” value was 91%. Also, under “3D culture conditions”, the “phosphorylated YAP amount (%)” value was 21% and the “total YAP amount (%)” value is 96%.
